Measurements from patent US20180221487A1, “NOVEL PROTEIN TRANSFECTION COMPOSITIONS AND USES THEREOF” (Chang Gung Memorial Hospital, Linkou, priority 2017, published 2018).

Assays:
[1] = test system: breast cancer cells; experiment: Protein transfection efficiency by flow cytometry; type: cell-based, human; settings: HEPES buffer 20 mM-40 mM
Experimental: (§1) Flow cytometry: After protein transfection was completed, the cells in the culture dish were washed with PBS, trypsinized and pelleted. The cells were mixed with Fixation/Permeabilization (eBioscience, Inc., San Diego, Calif., USA) working solution and incubated at 4° C. for 30 min to 24 h. Cells were washed twice with 1× Permeabilization Buffer (eBioscience, Inc., San Diego, Calif., USA). To assess the protein transfection efficiency, the cells were stained with anti-v5 or anti-flag antibodies and Alexa Fluor 488 anti-mouse antibodies on ice. Cells were suspended in 1×PBS and analyzed by flow cytometry (BD Biosciences, Qume Drive San Jose, Calif., USA). FIG. 1 schematically illustrates the protein transfection procedure. Briefly, the protein of interest and a protein transfection composition, such as HEPES buffer, were mixed and incubated for about 15 min to about 30 min to form a mixture (Panel A). Cells to be transfected were replaced in a minimal essential medium (Panel B). The mixture in Panel A was added to the cells in Panel B and incubated at 37° C. for about 4 to about 24 hours (Panel C). The protein transfection efficiency can be analyzed using immunofluorescent staining or flow cytometry (Panel D). Alexa Fluor 488 anti-mouse IgG or […]1 were incubated with Opti-MEM (the control group) or HEPES buffer (20 mM-40 mM) to transfect the following cancer cells according to the steps in Example 1: human cervical cancer cells, human breast cancer cells (MCF7, BRCA009 or BRCA011), human endometrial cancer cells, lung adenocarcinoma cells, human pancreatic cancer cells, hepatocellular carcinoma cells, scarcoma cells, renal cell carcinoma cells, lymphoma cells, nasopharyngeal carcinoma cells, brain tumor cells, colon cancer cells, and leukemic cells. The protein transfection efficiency was assessed by flow cytometry or confocal microscope.

[2] = test system: cervical cancer cells; experiment: Protein transfection efficiency by flow cytometry; type: cell-based, human; settings: HEPES buffer 20 mM-40 mM
Experimental: as §1

[3] = test system: endometrial cancer cells; experiment: Protein transfection efficiency by flow cytometry; type: cell-based, human; settings: HEPES buffer 20 mM-40 mM
Experimental: as §1

[4] = test system: hepatocellular carcinoma cells; experiment: Protein transfection efficiency by flow cytometry; type: cell-based, human; settings: HEPES buffer 20 mM-40 mM
Experimental: as §1

[5] = test system: lung adenocarcinoma cells; experiment: Protein transfection efficiency by flow cytometry; type: cell-based, human; settings: HEPES buffer 20 mM-40 mM
Experimental: as §1

[6] = test system: pancreatic cancer cells; experiment: Protein transfection efficiency by flow cytometry; type: cell-based, human; settings: HEPES buffer 20 mM-40 mM
Experimental: as §1

[7] = test system: human ovarian cancer cells (MDAH2774); experiment: Protein transfection, immunofluorescent staining / confocal microscopy; type: cell-based; settings: transfected using 20-30 mM HEPES buffer
Experimental: Immunofluorescent staining procedure: After protein transfection is completed, the cells in the culture dish were washed three times with phosphate buffered saline (PBS) and fixed with 4% paraformaldehyde for 20 min. The cells were washed again with PBS, perforated with 0.1% Triton X-100 for 5 min, and blocked with 10% BSA for 30 min. For Alexa Fluor 488 anti-mouse IgGs, cells were stained with DAPI for 10 min. For B23, histone 1 or GAPDH antibody transfection, cells were stained with Alexa Fluor 488 or 546 anti-mouse IgG antibodies for 30 min and then stained with DAPI. For rhSTIP1 proteins or Flag-Rev peptides transfection, cells were stained with anti-v5 or anti-flag antibodies, respectively, and then stained with Alexa Fluor 488 anti-mouse IgG and DAPI. All images were detected by confocal microscopes (Leica, Wetzlar, Germany). The fluorescent signals were analyzed and quantified by Q-Win software (Leica, Wetzlar, Germany).
FIG. 1 schematically illustrates the protein transfection procedure. Briefly, the protein of interest and a protein transfection composition, such as HEPES buffer, were mixed and incubated for about 15 min to about 30 min to form a mixture (Panel A). Cells to be transfected were replaced in a minimal essential medium (Panel B). The mixture in Panel A was added to the cells in Panel B and incubated at 37° C. for about 4 to about 24 hours (Panel C). The protein transfection efficiency can be analyzed using immunofluorescent staining or flow cytometry (Panel D).
An in vitro evaluation of the optimal protein transfection condition was performed. According to the steps in FIG. 1. rhSTIP1 was incubated with HEPES buffers of different concentrations (5 or 20 mM) or Opti-MEM (control) at room temperature for about 15 minutes to form the protein mixtures to transfect human ovarian cancer cells. The mixtures were added to the cell culture dish comprising Opti-MEM and incubated at 37° C. for about 4 to about 24 hours.
Different amounts of Alexa Fluor® 488 anti-mouse IgG (0, 2, 4, 8, or 16 μg) were incubated with 20 mM HEPES buffer and mixed with ovarian (MDAH2774) cancer cells in Opti-MEM.
Alexa Fluor 488 anti-mouse IgG antibodies were mixed with 20 mM HEPES to form a mixture. […] Protein transfection efficiency was assessed using confocal fluorescent microscope.
The following proteins were incubated with Opti-MEM (control group) or 20-30 mM HEPES buffer to transfect ovarian cancer cells (MDAH2774 or MOSEC) or endometrial cancer cells: Alexa Fluor 488-conjugated, anti-mouse IgG antibody (about 150 kDa), anti-B23 antibody, anti-histone 1 antibody, anti-STIP1 antibody, rhSTIP1 protein (62.6 kDa), Flag-Rev peptide (<5 kDa) and FITC-Rev peptide (<5 kDa). […] Protein transfection efficiency was assessed by staining the transfected cancer cells with Alexa Fluor 488 or 594 anti-mouse IgG antibodies (for Alexa Fluor 488-conjugated anti-mouse IgG antibody, anti-B23 antibody, anti-histone 1 antibody, anti-STIP1 antibody), v5 antibody (for rhSTIP1), or anti-Flag antibody (for Flag-Rev peptide), and fluorescent signals were analyzed with confocal microscopy.
The protein transfection efficiency of HEPES was compared to other commercial reagents, such as PULsin™, ProteoJuice™, Pro-Ject™, Xfect™, and BioPORTER®. […] The transfected ovarian cancer cells were stained with Alexa Fluor 488 anti-mouse IgG antibodies and protein transfection efficiency was assessed by confocal fluorescent microscopy.

Substance: rhSTIP1: v5-tagged recombinant human STIP1 protein (BiP-STIP1-V5-His), 62.6 kDa
- transfection efficiency of rhSTIP1 using HEPES buffer [1]: about 98.8%
- transfection efficiency of rhSTIP1 using HEPES buffer [2]: about 98.8%
- transfection efficiency of rhSTIP1 using HEPES buffer [3]: ~97%
- transfection efficiency of rhSTIP1 using HEPES buffer [4]: ~96.6%
- transfection efficiency of rhSTIP1 using HEPES buffer [5]: ~99.5%
- transfection efficiency of rhSTIP1 using HEPES buffer [6]: ~99.9%
- fluorescent signal of transfected protein (confocal microscopy) [7]: detected
